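All cell lines were grown in 96-well plates and treated with compound for 48 hours. TGI marks complete inhibition of growth.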
Tests used:
Test in all cases: inhibition of tumour cell growth, NCI panel, 48 h
DMS 273 small cell lung = tested on: DMS 273 small cell lung
XF 498 CNS = tested on: XF 498 CNS
DU-145 prostate = tested on: DU-145 prostate
CCRF-CEM leukemia = tested on: CCRF-CEM leukemia

CCCCOC(=O)CN1C(=O)c2ccccc2C1=O
TGI (DMS 273 small cell lung): > 100 µM | TGI (XF 498 CNS): > 100 µM

O=C(CCl)N1CCCCC1C1(c2cc3ccccc3[nH]2)OCCO1 (centres undefined)
TGI (DU-145 prostate): 9.89 µM

C#CCCCC(=C)C[C@H](OCc1ccccc1)[C@H]1OC(=O)[C@@H]1C
TGI (CCRF-CEM leukemia): > 100 µM

Source: PubChem BioAssay (NCI)
